Assays:
Experiment in all cases: Greenhouse post-emergence spray, plant damage rating
Type in all cases: in vivo
Avena sativa (oats) = conditions: A. sativa, alone and combined
Protocol: (§1) Three species of weed, used in each test: Hypochoeris radicata (false dandelion), Sinapis, arvensis (wild mustard), and Avena sativa (oats), were grown in a greenhouse facility in 5.5 cm square pots using a potting soil mix comprising peat, vermiculite, sand, and 4-10-10 fertilizer. Water-soluble 20-20-20 fertilizer was used as a supplement for the plants as required. The plants were selected for use based on uniformity and quality and were potted separately. One plant per pot each of H. radicata (6–10 leaves) and S. arvensis (4–6 leaves) were used. Six to eight plants of A. sativa (2–4 leaves) were used per pot. After spraying with a herbicidal composition (as described below) the pots were arranged in a randomized complete block design in sub-irrigated watering trays. Six to ten replicates (pots) were used per treatment.
(§2) Herbicidal treatments were applied using a spray chamber fitted with a TeeJet 8006E flat fan nozzle (available from Spraying Systems Co., Wheaton, Ill.), calibrated to spray at a volume of 60 gpa at 40 psi. Treatment solutions were freshly prepared for each experiment. Plant damage was assessed at 10 to 14 days after treatment using a pre-transformed 0–10 rating scale (0 representing no damage, 10 representing plant death) in accordance with the procedure outlined in Statistical Methods in Agricultural Research, Little, T. M. et al, J. Wiley and Sons, 1975, pp. 119–120, 218.

[1] = tested on: Hypochoeris radicata (false dandelion); conditions: H. radicata, alone and combined
Protocol: as §1, §2

[2] = tested on: Sinapis arvensis (wild mustard); conditions: S. arvensis, alone and combined
Protocol: as §1, §2

[3] = Table 3 set 1: Round-Up 0.1%, Potassium pelargonate 0.1%
[4] = Table 3 set 2: Round-Up 0.1%, Potassium pelargonate 0.5%
[5] = Table 3 set 3: Round-Up 0.1%, Potassium pelargonate 0.5% (so in the source)

## CCCCCCCCC(=O)[O-].[K+] [Potassium pelargonate]
Avena sativa (oats); [3]
  Phytotoxicity (%) Observed: 6%
Avena sativa (oats); [4]
  Phytotoxicity (%) Observed: 5%
Avena sativa (oats); [5]
  Phytotoxicity (%) Observed: 7%
[1]; [3]
  Phytotoxicity (%) Observed: 0%
[1]; [4]
  Phytotoxicity (%) Observed: 0%
[1]; [5]
  Phytotoxicity (%) Observed: 3%
[2]; [3]
  Phytotoxicity (%) Observed: 0%
[2]; [4]
  Phytotoxicity (%) Observed: 0%
[2]; [5]
  Phytotoxicity (%) Observed: 2%

From patent US6930075B1, “Fatty acid-based herbicidal composition” (priority 1990, dated 2005)
